Patent publication US20130131008A1, “LIPOPHILIC MONOPHOSPHORYLATED DERIVATIVES AND NANOPARTICLES” (BOARD OF REGENTS, THE UNIVERSITY OF TEXAS SYSTEM, priority 2011, published 2013)

What was measured:
L1210 10K cells = assay: In vitro cytotoxicity assay (MTT), 72 h, dCK deficient cells; format: cell-based, murine
Text: Human leukemia cell line CCRF-CEM (CCL-119), human pancreatic cancer cell lines PANC-1 (CRL-1469), MIA PaCa-2 (CRL-1420), and BxPC-3 (CRL-1687), human breast adenocarcinoma cell line MCF-7 (HTB-22), and mouse lung cancer cell line TC-1 (CRL-2785) were from the American Type Culture Collection (Rockville, Md.). CCRF-CEM-AraC-8C cells (hENT1 deficient) and CCRF-CEM/dCK^−/− cells (dCK deficient) were kindly provided by Dr. Buddy Ullmann (Oregon Health & Science University, Portland, Oreg.) and Dr. Margaret Black (Washington State University, Pullman, Wash.), respectively. L1210 wt and L1210 10K were kindly supplied by Dr. Lars Petter Jordheim (Université Claude Bernard Lyon I, Lyon, France). TC-1-GR cells were previously developed in our lab. CCRF-CEM, CCRF-CEM-AraC-8C, CCRF-CEM/dCK^−/−, L1210 wt, L1210 10K, TC-1, and TC-1-GR cells were cultured in RPMI 1640 medium. MCF-7 and PANC-1 cells were cultured in Dulbecco's modified Eagle medium (DMEM), MIA PaCa-2 cells were cultured in DMEM medium with 2.5% horse serum. All media were supplemented with 10% fetal bovine serum (FBS), 100 U/mL of penicillin, and 100 μg/mL of streptomycin (all from Invitrogen, Carlsbad, Calif.).
Cells (5,000/well) were seeded in 96-well plates. After overnight incubation, they were treated with various concentrations of gemcitabine HCl, gemcitabine derivatives, or gemcitabine derivatives in nanoparticles at 37° C., 5% CO2. TC-1 and TC-1-GR cells were incubated for 48 h. CCRF-CEM, CCRF-CEM-AraC-8C, CCRF-CEM/dCK^−/−, L1210 wt, L1210 10K, and MCF-7 cells were incubated for 72 h, and MIA PaCa-2 and PANC-1 for 96 h. […] The number of viable cells after the incubation was determined using an MTT assay. […] Absorbance was measured using a BioTek Synergy™ HT Multi-Mode Microplate Reader (BioTek Instruments, Winooski, Vt.) at 570 nm and 630 nm. The fraction of affected (dead) cells (Fa) and the fraction of unaffected (live) cells (Fu) at every dose were calculated, and the Log(Fa/Fu) values were plotted against the Log(concentration of gemcitabine). […]

[1] = molecular target: T1, dCDA partially purified from BxPC-3 cells (Homo sapiens, UniProt P32320); assay: dCDA activity (competition) assay, conversion of dCyd to dUrd; format: biochemical; conditions: 0.5 mM dCyd, 37° C., 15 min; inhibitor […] (FIG. 2B)
T1 construct: dCDA was partially purified from BxPC-3 cells as previously described; endogenous in cells; host or cells: BxPC-3 (ATCC CRL-1687), 40-55% ammonium sulfate fraction of the cell lysate
Experimental: Proton NMR spectra were recorded on a 300 MHz Varian UNITYplus™ or a 500 MHz Varian INOVA. Chemical shifts (δ) of ^1H NMR spectra were recorded in parts per million (ppm) relative to tetramethylsilane (TMS), which was the reference (δ=0 ppm). ^1H NMR data are reported according to the following order: chemical shift, integration (i.e., number of hydrogen atoms), multiplicity (s=singlet, d=doublet, t=triplet, q=quartet, m=multiplet, br=broad, brs=broad singlet), and coupling constant in Hertz (Hz). […] The concentrations of dCyd and dUrd in the dCDA assay were determined using an Agilent 1260 Infinity high performance liquid chromatography (HPLC) with an Agilent ZORBAX® Eclipse Plus C18 column (4.6×150 mm, 5 μm) attached to a ZORBAX® Eclipse Plus guard column (Agilent Technologies, Inc., Santa Clara, Calif.).
dCDA was partially purified from BxPC-3 cells as previously described. […] Protein concentration was measured using Bradford reagent from Sigma-Aldrich. […] The mixture was centrifuged at 10,000 g for 1 min, and the upper layer was analyzed using HPLC (detection wavelength, 260 nm; mobile phase, 10% methanol in water). The relevant peaks were quantified to determine the concentrations of dCyd and dUrd. […]

T1 sequence (P32320 whole entry): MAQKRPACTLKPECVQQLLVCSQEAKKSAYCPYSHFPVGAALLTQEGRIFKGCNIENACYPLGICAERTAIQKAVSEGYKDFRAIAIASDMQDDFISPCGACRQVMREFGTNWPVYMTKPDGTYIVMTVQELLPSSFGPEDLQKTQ

## Cl.Nc1ccn([C@@H]2O[C@H](CO)[C@@H](O)C2(F)F)c(=O)n1 [Gemcitabine HCl, 2′,2′-difluorodeoxycytidine HCl, reference compound]
L1210 10K cells
  Ratio of IC50 in L1210 10K to that in L1210 wt: 17,046
L1210 10K cells; IC50 of gemcitabine HCl divided by that of the nanoparticles
  Ratio of IC50 values in L1210 10K cells: 1
L1210 10K cells; Mus musculus, L1210, MTT, 72 h incubation, dCK deficient
  IC50: 22.2 ± 3.7 µM
[1]
  Inhibition of the deamination of dCyd (conversion to dUrd) by dCDA: competitively inhibited the conversion of dCyd to dUrd
